Source: publication doi:10.1101/2025.11.21.689733v1, “Identification and Characterization of a Small Molecule Ligand for the Huntingtin-HAP40 Complex” (biorxiv, 2025)

Tests used:
Format in all cases: binding
HTTQ23-HAP40 (HTT-HAP40) [1] = biological target: T1, HTTQ23-HAP40 (HTT-HAP40) (Homo sapiens, UniProt P23610+P42858, P42858:INS38QQ); assay: SPR, […] model; settings: pH 7.4, 150 mM NaCl, 4% DMSO
T1 construct: full-length HTT (3144 aa, polyQ tract Q23) co-complex with HAP40, ~390 kDa; C-terminal Avi-tag biotinylated (BirA) for SPR; Sf9 baculovirus

HTTQ23-HAP40 (HTT-HAP40) [2] = biological target: T1, HTTQ23-HAP40 (HTT-HAP40); assay: SPR, […] model
HTTQ54-HAP40 = biological target: T2, HTTQ54-HAP40 (Homo sapiens, UniProt P23610+P42858, P42858:INS38QQQQQQQQQQQQQQQQQQQQQQQQQQQQQQQQQ); assay: SPR
T2 construct: gene HTT; full-length HTT with polyQ tract of 54 residues in complex with HAP40; C-terminal Avi-tag biotinylated; Sf9 baculovirus
Description: SPR on HTTQ54-HAP40 | binding affinity was indistinguishable between wild-type (Q23) HTT-HAP40 and its expanded form (Q54)

HTTQ23-HAP40 (HTT-HAP40) [3] = biological target: T1, HTTQ23-HAP40 (HTT-HAP40); assay: SPR, steady state, […] model; settings: read-out: apparent KD

T1 sequence (P42858 with tags, fused parts or gaps INS38QQ): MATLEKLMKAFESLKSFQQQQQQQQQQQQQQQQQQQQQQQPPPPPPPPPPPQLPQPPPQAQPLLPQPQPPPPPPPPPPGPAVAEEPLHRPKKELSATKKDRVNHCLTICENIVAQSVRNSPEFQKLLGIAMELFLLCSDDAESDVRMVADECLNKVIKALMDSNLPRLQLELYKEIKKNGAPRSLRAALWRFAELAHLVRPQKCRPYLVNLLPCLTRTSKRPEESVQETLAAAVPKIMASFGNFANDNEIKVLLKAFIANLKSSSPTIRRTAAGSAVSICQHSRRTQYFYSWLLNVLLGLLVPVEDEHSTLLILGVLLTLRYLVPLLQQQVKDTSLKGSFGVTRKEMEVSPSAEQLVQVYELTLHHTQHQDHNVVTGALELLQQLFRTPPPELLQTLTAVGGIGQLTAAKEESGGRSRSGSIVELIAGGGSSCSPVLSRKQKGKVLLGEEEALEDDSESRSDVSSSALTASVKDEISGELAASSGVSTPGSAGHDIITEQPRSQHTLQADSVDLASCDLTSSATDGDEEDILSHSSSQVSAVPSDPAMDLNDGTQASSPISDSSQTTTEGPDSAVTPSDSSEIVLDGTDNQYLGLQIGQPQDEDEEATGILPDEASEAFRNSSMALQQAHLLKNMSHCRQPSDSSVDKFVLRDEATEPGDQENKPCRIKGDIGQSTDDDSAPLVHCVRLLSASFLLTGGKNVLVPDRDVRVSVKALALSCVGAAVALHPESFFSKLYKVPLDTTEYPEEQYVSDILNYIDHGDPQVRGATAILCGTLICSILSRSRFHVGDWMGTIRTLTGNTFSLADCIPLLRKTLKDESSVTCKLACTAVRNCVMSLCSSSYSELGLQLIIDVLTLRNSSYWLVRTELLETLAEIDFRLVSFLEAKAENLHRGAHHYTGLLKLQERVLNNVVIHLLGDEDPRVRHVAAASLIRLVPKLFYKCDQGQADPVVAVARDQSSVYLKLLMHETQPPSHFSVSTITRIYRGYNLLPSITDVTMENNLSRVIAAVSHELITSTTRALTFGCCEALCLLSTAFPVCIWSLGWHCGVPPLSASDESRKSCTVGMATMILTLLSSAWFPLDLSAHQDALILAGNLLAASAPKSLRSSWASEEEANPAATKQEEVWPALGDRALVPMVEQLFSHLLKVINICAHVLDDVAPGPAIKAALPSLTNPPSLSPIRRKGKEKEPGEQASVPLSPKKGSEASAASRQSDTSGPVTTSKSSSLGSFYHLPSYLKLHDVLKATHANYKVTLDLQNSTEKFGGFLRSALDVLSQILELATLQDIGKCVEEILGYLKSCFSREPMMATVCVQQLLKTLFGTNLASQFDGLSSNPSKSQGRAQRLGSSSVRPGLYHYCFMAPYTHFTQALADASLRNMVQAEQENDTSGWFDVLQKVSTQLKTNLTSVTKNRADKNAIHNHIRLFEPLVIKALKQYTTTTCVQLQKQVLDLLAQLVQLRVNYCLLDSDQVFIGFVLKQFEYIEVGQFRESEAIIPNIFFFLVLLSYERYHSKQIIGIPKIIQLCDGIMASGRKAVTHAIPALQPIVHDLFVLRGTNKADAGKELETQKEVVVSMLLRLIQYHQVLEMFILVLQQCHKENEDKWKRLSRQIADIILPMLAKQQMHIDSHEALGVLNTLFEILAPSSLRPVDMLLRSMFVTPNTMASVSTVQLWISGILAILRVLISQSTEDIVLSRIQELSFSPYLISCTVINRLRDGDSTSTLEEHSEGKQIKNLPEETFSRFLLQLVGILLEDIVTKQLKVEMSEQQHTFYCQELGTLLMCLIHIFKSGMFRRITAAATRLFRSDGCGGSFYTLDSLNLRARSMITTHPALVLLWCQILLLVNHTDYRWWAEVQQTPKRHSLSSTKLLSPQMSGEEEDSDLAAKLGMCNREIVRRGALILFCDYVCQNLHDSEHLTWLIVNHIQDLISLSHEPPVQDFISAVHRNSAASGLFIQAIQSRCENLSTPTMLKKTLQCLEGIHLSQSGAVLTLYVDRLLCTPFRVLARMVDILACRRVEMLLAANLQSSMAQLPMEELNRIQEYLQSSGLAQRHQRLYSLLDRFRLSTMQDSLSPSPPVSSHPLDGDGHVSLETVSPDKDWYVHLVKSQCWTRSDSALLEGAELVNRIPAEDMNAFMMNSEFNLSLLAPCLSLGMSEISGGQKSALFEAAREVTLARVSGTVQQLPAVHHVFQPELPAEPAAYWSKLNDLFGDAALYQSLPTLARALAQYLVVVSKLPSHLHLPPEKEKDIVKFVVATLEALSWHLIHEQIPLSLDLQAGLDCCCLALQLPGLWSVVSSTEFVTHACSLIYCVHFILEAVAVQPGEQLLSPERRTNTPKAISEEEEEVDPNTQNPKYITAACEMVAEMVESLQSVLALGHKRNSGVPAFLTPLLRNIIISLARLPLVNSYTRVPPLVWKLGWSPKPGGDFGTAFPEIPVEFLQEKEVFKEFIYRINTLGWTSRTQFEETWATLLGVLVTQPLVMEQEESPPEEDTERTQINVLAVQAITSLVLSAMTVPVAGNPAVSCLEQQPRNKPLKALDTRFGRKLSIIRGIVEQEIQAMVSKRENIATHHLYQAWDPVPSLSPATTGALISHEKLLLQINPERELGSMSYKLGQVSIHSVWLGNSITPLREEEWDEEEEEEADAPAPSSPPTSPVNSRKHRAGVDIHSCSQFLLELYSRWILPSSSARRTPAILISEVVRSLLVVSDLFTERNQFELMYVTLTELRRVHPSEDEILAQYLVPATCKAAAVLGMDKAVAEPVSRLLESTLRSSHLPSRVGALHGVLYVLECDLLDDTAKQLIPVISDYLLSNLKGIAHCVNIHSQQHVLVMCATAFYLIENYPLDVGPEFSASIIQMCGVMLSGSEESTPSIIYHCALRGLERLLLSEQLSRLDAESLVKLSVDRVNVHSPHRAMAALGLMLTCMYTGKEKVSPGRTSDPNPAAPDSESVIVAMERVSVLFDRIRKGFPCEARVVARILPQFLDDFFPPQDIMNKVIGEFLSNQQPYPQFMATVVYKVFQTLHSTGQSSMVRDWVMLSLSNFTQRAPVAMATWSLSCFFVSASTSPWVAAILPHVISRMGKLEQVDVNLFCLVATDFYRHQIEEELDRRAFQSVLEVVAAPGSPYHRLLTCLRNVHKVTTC
T1 sequence (P23610 whole entry, stated change not applied): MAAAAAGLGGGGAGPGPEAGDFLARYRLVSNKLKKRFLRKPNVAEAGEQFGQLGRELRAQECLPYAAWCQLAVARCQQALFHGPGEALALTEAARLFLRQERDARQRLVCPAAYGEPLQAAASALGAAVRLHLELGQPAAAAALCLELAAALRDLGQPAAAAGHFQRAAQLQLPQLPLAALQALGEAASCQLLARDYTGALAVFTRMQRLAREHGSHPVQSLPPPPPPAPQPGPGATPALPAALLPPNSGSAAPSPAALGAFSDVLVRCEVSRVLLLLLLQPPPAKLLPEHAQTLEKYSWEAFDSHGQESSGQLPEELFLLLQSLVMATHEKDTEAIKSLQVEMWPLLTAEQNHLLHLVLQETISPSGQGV

Cc1nn(C)c2cc(CNc3ccccc3C3CCC(F)(F)C3)ccc12 (centres unmarked) [compound 21, 21]
KD (HTTQ23-HAP40 (HTT-HAP40) [1]): These modifications were well-tolerated but did not improve affinity

Cn1ncc2ccc(CNc3ccccc3C3CC(F)(F)C3)cc21 [compound 3, 3]
Kd (HTTQ23-HAP40 (HTT-HAP40) [2]): 3.5 ± 1 µM

Cn1ncc2ccc(CNc3ccccc3C3CC3(F)F)cc21 (racemic) [compound 1, AS-MS Hit 1]
Kd (HTTQ54-HAP40): 4 ± 1 µM | Kd (HTTQ23-HAP40 (HTT-HAP40) [3]): 5 ± 2 µM

Cn1ncc2ccc(CNc3ccccc3[C@H]3CC3(F)F)cc21 (single isomer, unassigned; peak 2) [compound 1, Peak 2 of AS-MS Hit 1]
Kd (HTTQ23-HAP40 (HTT-HAP40) [3]): 4 ± 2 µM
